The values that follow are results of earlier work, collected in patent US20060280819A1, “Ellagic acid food supplement prepared from pomegranate seed” (priority 2005, published 2006).

The test system of series [1] is breast, pancreas, esophageal, skin, colon and prostate cancer cells.
The test system of another series is p53 gene. The conditions noted are these: clinical tests.
Another series concerns cancer cells. The conditions noted are these: lab tests.
The subject of the next series is normal healthy cells. The conditions noted are these: lab tests.

As to `O=c1oc2c(O)c(O)cc3c(=O)oc4c(O)c(O)cc1c4c23` [ellagic acid], in series [1], the “time to G-arrest (inhibiting and stopping mitosis-cancer cell division)” value is no more than 48 h; the “time to apoptosis (normal cell death)” value is no more than 72 h. Also, in the series on p53 gene, the “effect on destruction of the p53 gene by cancer cells” value is given as “prevents the destruction of the p53 gene”. In the series with cancer cells, the “apoptosis (cell death) of cancer cells” value is recorded as “causes apoptosis”. Also, in the series on normal healthy cells, the “effect on normal healthy cells” value is “no change”.
